Results taken from patent US5811445A, “Method of preventing abnormal stimulation of AT1 and AT2 receptors” (Roussel Uclaf, priority 1994, dated 1998).
Read-outs that look alike come from different tables or passages of the source.

Legend:
[1] = target: T1, AT1 receptor of angiotensin II (Rattus norvegicus, UniProt P25095); assay: Test on the AT1 receptor of angiotensin II (displacement of 125I angiotensin II, rat liver membranes); assay type: binding
T1 construct: A fresh membrane preparation obtained from rat's liver is used; from tissue; host or cells: rat liver membranes
T1 sequence (P25095 1-359): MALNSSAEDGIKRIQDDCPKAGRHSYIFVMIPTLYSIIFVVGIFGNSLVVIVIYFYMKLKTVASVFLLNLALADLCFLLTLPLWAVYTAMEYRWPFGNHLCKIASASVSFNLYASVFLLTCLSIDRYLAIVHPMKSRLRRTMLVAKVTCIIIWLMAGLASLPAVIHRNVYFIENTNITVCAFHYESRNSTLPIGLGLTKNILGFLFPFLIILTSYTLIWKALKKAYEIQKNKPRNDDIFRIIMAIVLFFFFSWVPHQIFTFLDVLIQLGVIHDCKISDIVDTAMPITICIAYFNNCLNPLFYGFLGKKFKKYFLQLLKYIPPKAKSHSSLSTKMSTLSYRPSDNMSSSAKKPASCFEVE
Protocol: 1 - Test on the AT1 -receptor of angiotensin II
A fresh membrane preparation obtained from rat's liver is used. The tissue is ground up in a polytron in a 50 mM Tris buffer pH 7.4, the grinding is followed by 3 centrifugations at 30,000 g for 15 minutes with intermediate take up of the pellets in the Tris buffer pH 7.4.
(§1) (The product is first tested with 3×10^-5 M three times). When the tested product displaces more than 50% of the radioactivity specifically bound to the receptor, it is tested again according to a range of 7 concentrations in order to determine the concentration which inhibits by 50% the radioactivity specifically bound to the receptor. In this way the 50% inhibitory concentration is determined).
(§2) After incubation at 25° C. for 150 minutes, placing in a water-bath at 0° C. for 5 minutes, filtration under vacuum, and rinsing with Tris buffer pH 7.4, the radioactivity is counted in the presence of a scintillating solid.

[2] = target: T2, AT2 receptor of angiotensin II (Oryctolagus cuniculus, UniProt G1T351); assay: Test on the AT2 receptor of angiotensin II (displacement of 125I angiotensin II, rabbit uterus membranes); assay type: binding
T2 construct: A fresh membrane preparation obtained from rabbit's uterus is used; from tissue; host or cells: uterus membranes of estradiol-treated rabbits
T2 sequence (G1T351 1-363): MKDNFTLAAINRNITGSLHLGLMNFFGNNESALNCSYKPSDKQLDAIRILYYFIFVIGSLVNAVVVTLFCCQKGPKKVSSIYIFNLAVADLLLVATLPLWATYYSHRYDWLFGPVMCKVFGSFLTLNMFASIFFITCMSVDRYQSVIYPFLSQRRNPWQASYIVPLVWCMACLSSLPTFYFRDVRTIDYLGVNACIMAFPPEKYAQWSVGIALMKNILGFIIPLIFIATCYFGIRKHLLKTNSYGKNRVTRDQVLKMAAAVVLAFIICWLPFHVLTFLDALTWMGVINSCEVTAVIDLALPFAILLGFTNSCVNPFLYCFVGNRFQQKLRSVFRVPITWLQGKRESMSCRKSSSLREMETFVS
Protocol: 2) Test on the AT2 receptor of angiotensin II
The tissue is ground up in a polytron in a 50 mM Tris buffer pH 7.4, and the grinding is followed by 3 centrifugations at 30,000 g for 15 minutes, with intermediate take up of the pellets in the Tris buffer pH 7.4.
The homogenate obtained is preincubated for 20 minutes at 25° C. in the presence of 10 mM dithiothreitol, then brought back to 0°-4° C.
as §1, with “The” for “(The”, “at 3.10^-5” for “with 3×10^-5”, “times.” for “times).”, “determined.” for “determined).”
as §2

[3] = system: angiotensin II (pressure effects); assay: Test for antagonistic activity of angiotensin II in the demedullated rat; assay type: in vivo, Male Sprague-Dawley rats; conditions: IV, inhibition of pressure effects of angiotensin II (0.75 micrograms/kg), read-out: ID50 IV
Protocol: 3 - Test for antagonistic activity of angiotensin II in the demedullated rat
Male Sprague-Dawley rats (250 to 350 g) are anaesthetized by an intraperitoneal injection with sodium pentobarbital (60 mg/kg). The diastolic arterial pressure is recorded by means of a heparin catheter (PE50) introduced into the left carotid of the animal, and connected to a pressure processor (Gould, Pressure Processor) via a Gould pressure sensor.
A catheter is introduced into the right jugular vein of the animal in order to allow injection of the molecules being studied.
The animal is placed under assisted respiration. A bilateral section of the vagus nerves is carried out. The rat is then demedullated.
After a sufficient stabilization period, study of the antagonism of the molecules vis-a-vis angiotensin II (Hypertensin, CIBA) is carried out in the following manner:
1 - Three consecutive injections of angiotensin II (0.75 micrograms/kg) 15 minutes apart allow a reproducible and stable pressure response to be obtained.
2 - While maintaining a periodicity of 15 minutes for the administration of angiotensin II, the molecules (0.01 to 10 mg/kg) are injected 5 minutes before the angiotensin II.
The pressure effects of angiotensin II in the presence of the antagonist are expressed as a percentage of the pressure effects of angiotensin II administered alone. The 50% inhibitory dose (ID50) of the effect studied is thus determined.
Each animal is considered as its own control.

[4] = system: angiotensin II (pressure effects); assay: as above; assay type: in vivo, Male Sprague-Dawley rats; conditions: PO, inhibition of pressure effects of angiotensin II (0.75 micrograms/kg), read-out: ID50 PO
[5] = rat liver membrane, 125I angiotensin II, 25° C., 150 minutes, read-out: AT1 Receptor IC50
[6] = rabbit uterus membrane (estradiol pre-treated), 125I angiotensin II, 25° C., 150 minutes, read-out: AT2 Receptor IC50
[7] = products P1 to P13, expressed in nM, read-out: On AT1 receptor IC50
[8] = products P1 to P13, expressed in nM, read-out: On AT2 receptor IC50

Row | Compound | IC50 [1, 5] | IC50 [2, 6] | ED50 [3] | ED50 [4] | IC50 [1, 7] | IC50 [2, 8]
1 | CCCc1nc(SC)c(C(=O)O)n1Cc1ccc(-c2ccccc2S(=O)(=O)NC(=O)NCc2ccccc2)cc1 [Example 25, 4-(methylthio) 1-[(2'-(((((phenylmethyl)amino)carbonyl)amino)sulphonyl) (1,1'-biphenyl) 4-yl)methyl] 2-propyl 1H-imidazole 5-carboxylic acid] | 0.2 nM | 5.9 nM | 0.22 mg/kg | 1.45 mg/kg | – | –
2 | CCCc1nc(SC(F)F)c(C(=O)O)n1Cc1ccc(-c2ccccc2S(=O)(=O)NC(=O)NCCc2ccccc2)cc1 [Example 48] | – | – | 0.64 mg/kg | – | – | –
3 | CCCCc1nc(SC)c(C(N)=O)n1Cc1ccc(-c2ccccc2S(=O)(=O)NC(=O)NCCC)cc1 [Example 35, 2-butyl 4-(methylthio) 1-((2'-((((propylamino)carbonyl)amino)sulphonyl) (1,1'-biphenyl) 4-yl)methyl) 1H-imidazole 5-carboxamide] | – | – | 0.05 mg/kg | – | – | –
4 | CCCc1nc(SC(F)F)c(C(=O)O)n1Cc1ccc(-c2ccccc2S(=O)(=O)NC(=O)NCCc2cccs2)cc1 [Example 47] | 0.03 nM | – | 0.33 mg/kg | 3 mg/kg | – | –
5 | CCCc1nc(SC(F)F)c(C(=O)O)n1Cc1ccc(-c2ccccc2S(=O)(=O)NC(=O)NCc2cccs2)cc1 [Example 50, 4-((difluoromethyl)thio) 2-propyl 1-((2'-(((((2-thienylmethyl)amino)carbonyl)amino)sulphonyl) (1,1'-biphenyl) 4-yl)methyl) 1H-imidazole 5-carboxylic acid] | 0.06 nM | 7.4 nM | 0.13 mg/kg | – | – | –
6 | CCCCc1nc(SC)c(C(C)(O)C(=O)O)n1Cc1ccc(-c2ccccc2S(=O)(=O)NC(=O)OCc2ccccc2)cc1 (stereo not drawn) [Example 7, 2-butyl alpha-hydroxy alpha-methyl 4-(methylthio) 1-[(2'-((((phenylmethoxy)carbonyl)amino)sulphonyl) (1,1'-biphenyl) 4-yl)methyl] 1H-imidazole 5-acetic acid] | 0.7 nM | 5.2 nM | 0.6 mg/kg | – | – | –
7 | CCCc1nc(SC)c(C(=O)O)n1Cc1ccc(-c2ccccc2S(=O)(=O)NC(=O)NCC2CCCCC2)cc1 [Example 23, sodium 1-((2'-(((((cyclohexylmethyl)amino)carbonyl)amino)sulphonyl) (1,1'-biphenyl) 4-yl)methyl] 4-(methylthio) 2-propyl 1H-imidazole 5-carboxylate] | 0.2 nM | 2 nM | 0.3 mg/kg | 1.54 mg/kg | – | –
8 | CCCc1nc(SC(F)F)c(C(=O)O)n1Cc1ccc(-c2ccccc2S(=O)(=O)NC(=O)NCc2ccccc2)cc1 [Example 46, 4-((difluoromethyl)thio) 1-((2'-(((((phenylmethyl)amino)carbonyl)amino)sulphonyl) (1,1'-biphenyl) 4-yl)methyl) 2-propyl 1H-imidazole 5-carboxylic acid] | 0.11 nM | 0.26 nM | 0.26 mg/kg | 2 mg/kg | – | –
9 | CCCc1nc(SC(F)F)c(C(=O)O)n1Cc1ccc(-c2ccccc2S(=O)(=O)NC(=O)NCC2CCCCC2)cc1 [Example 45, 1-((2'-(((((cyclohexylmethyl)amino)carbonyl)amino)sulphonyl) (1,1'-biphenyl 4-yl)methyl) 4-(difluoromethyl)thio) 2-propyl 1H-imidazole 5-carboxylic acid] | 0.07 nM | 1.7 nM | 0.22 mg/kg | 1.1 mg/kg | – | –
10 | CCCCC(O)(C(=O)O)c1c(SC)nc(CCC)n1Cc1ccc(-c2ccccc2S(=O)(=O)NC(=O)NCc2ccccc2)cc1 (stereo not drawn) [Example 32, sodium alpha-butyl alpha-hydroxy 4-(methylthio) 1-[(2'-(((((phenylmethyl)amino)carbonyl)amino)sulphonyl) (1,1'-biphenyl) 4-yl)methyl] 2-propyl 1H-imidazole 5-acetate] | 0.5 nM | 0.8 nM | 0.46 mg/kg | – | – | –
11 | CCCc1nc(SC)c(C(=O)O)n1Cc1ccc(-c2ccccc2S(=O)(=O)NC(=O)Nc2ccccc2)cc1 [Example 62, 4-(methylthio) 1-((2'-((((phenylamino)carbonyl)amino)sulphonyl) (1,1'-biphenyl) 4-yl)methyl) 2-propyl 1H-imidazole 5-carboxylic acid] | – | – | 0.52 mg/kg | – | – | –
12 | CCCCc1nc(SC)c(C(=O)O)n1Cc1ccc(-c2ccccc2S(=O)(=O)NC(=O)NCC2CCCCC2)cc1 [Example 75, 2-butyl 1-((2'-(((((cyclohexylmethyl)amino)carbonyl)amino)sulphonyl) (1,1'-biphenyl) 4-yl)methyl) 4-(methylthio) 1H-imidazole 5-carboxylic acid] | 0.05 nM | – | 0.35 mg/kg | – | 0.23 nM | 17 nM
13 | CCCCc1nc(SC)c(C(=O)O)n1Cc1ccc(-c2ccccc2S(=O)(=O)NC(=O)NC(Cc2ccccc2)C(=O)O)cc1 (centres unmarked) [Example P7, 2-butyl 1-[(2'-(((((1-(1-carboxy 2-phenyl)ethyl)amino)carbonyl)amino)sulphonyl) (1,1'-biphenyl) 4-yl)methyl] 4-methylthio 1H-imidazole 5-carboxylic acid] | – | – | – | – | 0.4 nM | 49 nM
14 | CCCCc1nc(SC)c(C(O)CC(=O)O)n1Cc1ccc(-c2ccccc2S(=O)(=O)NC(=O)NCc2ccccc2)cc1 (stereo not drawn) [Example 65, 2-butyl beta-hydroxy 4-(methylthio) 1-((2'-(((((phenylmethyl)amino)carbonyl)amino)sulphonyl) (1,1'-biphenyl) 4-yl)methyl) 1H-imidazole 5-propionic acid] | – | – | 0.05 mg/kg | – | – | –
15 | CCCCc1nc(SC)c(C(=O)O)n1Cc1ccc(-c2ccccc2S(=O)(=O)NC(=O)NCc2ccc(F)cc2)cc1 [Example P6, 2-butyl 1-[(2'-((((((4-fluoro)phenylmethyl)amino)carbonyl)amino)sulphonyl) (1,1,1-biphenyl) 4-yl)methyl] 4-methylthio 1H-imidazole 5-carboxylic acid] | – | – | – | – | 0.27 nM | 10 nM
16 | CCCCc1nc(SC)c(C(=O)O)n1Cc1ccc(-c2ccccc2S(=O)(=O)NC(=O)C(c2ccccc2)c2ccccc2)cc1 [Example 30, 2-butyl 1-[(2'-(((diphenylacetyl)amino)sulphonyl) (1,1'-biphenyl) 4-yl)methyl] 4-(methylthio) 1H-imidazole 5-carboxylic acid] | – | – | 0.93 mg/kg | – | – | –
